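The compound was tested at five concentrations on cells cultured in 96-well plates, with a 48-hour exposure period. Definition used: TGI = concentration required for complete inhibition of growth.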
What was measured:
Assay in all cases: NCI anticancer screen, dose series, 48 h
786-0 renal = test system: 786-0 renal
A498 renal = test system: A498 renal
A549 NSCLC = test system: A549 NSCLC
DU-145 prostate = test system: DU-145 prostate
EKVX NSCLC = test system: EKVX NSCLC
HCT-116 colon = test system: HCT-116 colon
HCT-15 colon = test system: HCT-15 colon
HOP-92 NSCLC = test system: HOP-92 NSCLC
IGROV1 ovarian = test system: IGROV1 ovarian
K-562 leukemia = test system: K-562 leukemia
KM12 colon = test system: KM12 colon
MDA-N = test system: MDA-N
NCI-H23 lung = test system: NCI-H23 lung
NCI-H522 lung = test system: NCI-H522 lung
NCI/ADR-RES ovarian = test system: NCI/ADR-RES ovarian
OVCAR-5 ovarian = test system: OVCAR-5 ovarian
SN12C renal = test system: SN12C renal
SNB-19 CNS = test system: SNB-19 CNS
TK-10 renal = test system: TK-10 renal
UACC-62 melanoma = test system: UACC-62 melanoma

In the case of COc1cc(/C=C2\C[C@H]3[C@@H]4CC=C5C[C@@H](O)CC[C@]5(C)[C@H]4CC[C@]3(C)[C@H]2O)cc(OC)c1OC, the TGI (786-0 renal) is reported as 27.1 µM, the TGI (A498 renal) is reported as 80.6 µM and the TGI (A549 NSCLC) is reported as over 100 µM. For the same compound, the TGI (DU-145 prostate) was over 100 µM, the TGI (EKVX NSCLC) was over 100 µM and the TGI (HCT-116 colon) was 24.4 µM. For the same compound, the TGI (HCT-15 colon) was over 100 µM, the TGI (HOP-92 NSCLC) was 65.8 µM and the TGI (IGROV1 ovarian) was over 100 µM. For the same compound, the TGI (K-562 leukemia) was over 100 µM, the TGI (KM12 colon) was 39.4 µM and the TGI (MDA-N) was over 100 µM. It also gave a TGI (NCI-H23 lung) of 58.2 µM, a TGI (NCI-H522 lung) of over 100 µM and a TGI (NCI/ADR-RES ovarian) of over 100 µM. For the same compound, the TGI (OVCAR-5 ovarian) was 61.9 µM, the TGI (SN12C renal) was over 100 µM and the TGI (SNB-19 CNS) was over 100 µM. It also gave a TGI (TK-10 renal) of over 100 µM and a TGI (UACC-62 melanoma) of 39.3 µM.

For CC(=N/NC(=S)N1CCCCC1)/C(=N\NC(=S)N1CCCCC1)c1ccccc1, the TGI (786-0 renal) was 3.69 µM, the TGI (A498 renal) was 2.65 µM and the TGI (A549 NSCLC) was 4.5 µM. It also gave a TGI (DU-145 prostate) of 0.973 µM, a TGI (EKVX NSCLC) of 3.43 µM and a TGI (HCT-116 colon) of 5.83 µM. The TGI (HCT-15 colon) was 4.56 µM, the TGI (HOP-92 NSCLC) was 3.36 µM and the TGI (IGROV1 ovarian) was 3.27 µM. It also gave a TGI (K-562 leukemia) of over 100 µM, a TGI (KM12 colon) of 3.99 µM and a TGI (MDA-N) of 7.64 µM. For the same compound, the TGI (NCI-H23 lung) was 5.16 µM, the TGI (NCI-H522 lung) was 4.18 µM and the TGI (NCI/ADR-RES ovarian) was 6.43 µM. For the same compound, the TGI (OVCAR-5 ovarian) was 3.87 µM, the TGI (SN12C renal) was 3.43 µM and the TGI (SNB-19 CNS) was 3.64 µM. For the same compound, the TGI (TK-10 renal) was 3.21 µM and the TGI (UACC-62 melanoma) was 3.87 µM.

Compound C=C1C(=O)O[C@@H]2[C@H]1C[C@@H](O)[C@H](C)[C@@](O)(C(=O)/C=C/C)[C@H]2OC(=O)C(C)CC (stereo not given in full) has a TGI (786-0 renal) of 6.91 µM, a TGI (A498 renal) of 37.7 µM and a TGI (A549 NSCLC) of 33 µM. It also gave a TGI (DU-145 prostate) of 22.8 µM, a TGI (EKVX NSCLC) of 27.3 µM and a TGI (HCT-116 colon) of 3.58 µM. The TGI (HCT-15 colon) was 7.97 µM, the TGI (HOP-92 NSCLC) was 9.83 µM and the TGI (IGROV1 ovarian) was 12.8 µM. The TGI (K-562 leukemia) was 23.6 µM, the TGI (KM12 colon) was 33.1 µM and the TGI (MDA-N) was 10.3 µM. The TGI (NCI-H23 lung) was 18.2 µM, the TGI (NCI-H522 lung) was 3.42 µM and the TGI (NCI/ADR-RES ovarian) was over 67.2 µM. The TGI (OVCAR-5 ovarian) was 14.5 µM, the TGI (SN12C renal) was 7.51 µM and the TGI (SNB-19 CNS) was over 68.8 µM. The TGI (TK-10 renal) was 16.7 µM and the TGI (UACC-62 melanoma) was 32.9 µM.

Work on COc1ccccc1C1SCC(=O)N1c1ccc(-n2c(-c3ccccc3)nc3ccccc3c2=O)cc1 (stereo not given) yielded a TGI (786-0 renal) of over 100 µM, a TGI (A498 renal) of over 100 µM and a TGI (A549 NSCLC) of over 100 µM. It also gave a TGI (DU-145 prostate) of over 100 µM, a TGI (EKVX NSCLC) of over 100 µM and a TGI (HCT-116 colon) of over 100 µM. It also gave a TGI (HCT-15 colon) of over 100 µM, a TGI (HOP-92 NSCLC) of over 100 µM and a TGI (IGROV1 ovarian) of over 100 µM. It also gave a TGI (K-562 leukemia) of over 100 µM, a TGI (KM12 colon) of over 100 µM and a TGI (MDA-N) of over 100 µM. For the same compound, the TGI (NCI-H23 lung) was over 100 µM, the TGI (NCI-H522 lung) was over 100 µM and the TGI (NCI/ADR-RES ovarian) was over 100 µM. It also gave a TGI (OVCAR-5 ovarian) of over 100 µM, a TGI (SN12C renal) of over 100 µM and a TGI (SNB-19 CNS) of over 100 µM. It also gave a TGI (TK-10 renal) of over 100 µM and a TGI (UACC-62 melanoma) of over 100 µM.

Source: PubChem BioAssay (NCI)
